Data published in patent publication US20250179078A1, “INHIBITORS OF NLRP3” (PTC THERAPEUTICS, INC., priority 2022, published 2025).

Target: T1, NLRP3 (Homo sapiens, UniProt Q96P20)
T1 construct: host or cells: THP-1 cells differentiated with PMA
Assay: IL-1β Secretion Assay (NLRP3-dependent IL1β secretion in THP1 cells)
Assay type: cell-based
Conditions: PMA-differentiated THP-1 cells; compounds incubated 20 h; 2.5 μM Nigericin 3 h; HTRF IL-1β readout; read-out: IC50 IL-1β Inhibition
How it was run: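 IL-1β in conditioned media, measured by HTRF after 3 h 2.5 μM nigericin stimulation, gave % inhibition fitted logistically for IC50. Before that, PMA-differentiated (100 ng/mL, 24 h) THP-1 cells were preincubated 20 h with 7 compound concentrations (3-fold serial, DMSO 1:200).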

T1 sequence (Q96P20 whole entry): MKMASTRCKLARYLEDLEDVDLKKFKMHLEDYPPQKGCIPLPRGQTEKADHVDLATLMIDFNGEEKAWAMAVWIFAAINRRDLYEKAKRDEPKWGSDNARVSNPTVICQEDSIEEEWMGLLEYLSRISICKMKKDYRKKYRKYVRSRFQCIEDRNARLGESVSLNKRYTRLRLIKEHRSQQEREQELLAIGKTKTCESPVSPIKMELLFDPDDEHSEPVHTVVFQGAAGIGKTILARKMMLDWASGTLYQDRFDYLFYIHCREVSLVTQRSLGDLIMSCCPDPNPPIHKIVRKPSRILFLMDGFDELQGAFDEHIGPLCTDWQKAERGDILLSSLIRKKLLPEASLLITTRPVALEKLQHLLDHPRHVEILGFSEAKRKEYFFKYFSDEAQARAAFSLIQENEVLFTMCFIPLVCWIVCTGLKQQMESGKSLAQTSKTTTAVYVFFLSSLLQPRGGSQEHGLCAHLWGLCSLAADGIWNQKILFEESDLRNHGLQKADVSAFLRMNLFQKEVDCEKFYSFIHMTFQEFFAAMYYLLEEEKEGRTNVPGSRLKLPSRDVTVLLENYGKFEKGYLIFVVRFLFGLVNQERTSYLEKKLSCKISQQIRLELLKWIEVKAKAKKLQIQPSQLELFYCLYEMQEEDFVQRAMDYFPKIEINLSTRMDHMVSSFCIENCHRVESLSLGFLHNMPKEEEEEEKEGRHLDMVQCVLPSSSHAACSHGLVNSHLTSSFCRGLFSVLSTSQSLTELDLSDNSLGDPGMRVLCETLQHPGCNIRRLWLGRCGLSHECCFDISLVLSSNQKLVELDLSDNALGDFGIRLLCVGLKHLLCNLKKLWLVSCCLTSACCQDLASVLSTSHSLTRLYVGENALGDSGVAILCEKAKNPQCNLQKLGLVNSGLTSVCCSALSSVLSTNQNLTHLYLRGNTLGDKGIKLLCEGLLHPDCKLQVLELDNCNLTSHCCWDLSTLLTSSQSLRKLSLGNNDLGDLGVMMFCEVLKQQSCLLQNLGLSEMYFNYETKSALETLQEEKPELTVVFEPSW

| IC50 [nM] | SMILES |
| --- | --- |
| 100 to 300 | COc1ccc(-c2nnc(NCc3nnnn3C)n3cccc23)c(OC(F)(F)F)c1 [Compound 125, 1-[4-methoxy-2-(trifluoromethoxy)phenyl]-N-[(1-methyl-1H-tetrazol-5-yl)methyl]pyrrolo[1,2-d][1,2,4]triazin-4-amine] |
| 1 to 10 | OC[C@H]1C[C@@H](Nc2nnc(-c3ccc(C(F)(F)F)cc3OC(F)(F)F)c3cncn23)C1 [Compound 255, [(1s,3s)-3-({1-[2-(trifluoromethoxy)-4-(trifluoromethyl)phenyl]imidazo[1,5-d][1,2,4]triazin-4-yl}amino)cyclobutyl]methanol] |
| 1 to 10 | COc1ccc(-c2nnc(NC3CCNC3=O)n3cncc23)c(CC(F)(F)F)c1 (stereo not shown) [Compound 238, 3-({1-[4-methoxy-2-(2,2,2-trifluoroethyl)phenyl]imidazo[1,5-d][1,2,4]triazin-4-yl}amino)pyrrolidin-2-one] |
| 1 to 10 | C[C@]1(O)C[C@@H](Nc2nnc(-c3ccc(Br)cc3OC(F)F)c3cncn23)C1 [Compound 199, (1s,3s)-3-({1-[4-bromo-2-(difluoromethoxy)phenyl]imidazo[1,5-d][1,2,4]triazin-4-yl}amino)-1-methylcyclobutan-1-ol] |
| 1 to 10 | COc1ccc(-c2nnc(N[C@H]3C[C@@](C)(O)C3)n3cccc23)c(CC(F)(F)F)c1 [Compound 1, (1s,3s)-3-({1-[4-methoxy-2-(2,2,2-trifluoroethyl)phenyl]pyrrolo[1,2-d][1,2,4]triazin-4-yl}amino)-1-methylcyclobutan-1-ol] |
| 10 to 100 | COc1ccc(-c2nnc(N[C@@H]3CCCC[C@H]3O)n3nc(C)cc23)c(OC(F)(F)F)c1 [Compound 392, (1R,2R)-2-({4-[4-methoxy-2-(trifluoromethoxy)phenyl]-2-methylpyrazolo[1,5-d][1,2,4]triazin-7-yl}amino)cyclohexan-1-ol] |
| 1 to 10 | COc1ccc(-c2nnc(N[C@@H]3CCOC[C@H]3O)n3cncc23)c(OC(F)F)c1 [Compound 268, (3S,4R)-4-({1-[2-(difluoromethoxy)-4-methoxyphenyl]imidazo[1,5-d][1,2,4]triazin-4-yl}amino)oxan-3-ol] |
| < 1 | CCN1CCC[C@@H](Nc2nnc(-c3ccc(OC)cc3C(F)(F)F)c3cncn23)C1 [Compound 212, N-[(3R)-1-ethylpiperidin-3-yl]-1-[4-methoxy-2-(trifluoromethyl)phenyl]imidazo[1,5-d][1,2,4]triazin-4-amine] |
| 1 to 10 | CCN1CCC[C@@H](Nc2nnc(-c3ccc(Cl)cc3Cl)c3cc(C)nn23)C1 [Compound 376, 4-(2,4-dichlorophenyl)-N-[(3R)-1-ethylpiperidin-3-yl]-2-methylpyrazolo[1,5-d][1,2,4]triazin-7-amine] |
| < 1 | C[C@]1(CO)C[C@@H](Nc2nnc(-c3ccc(C(F)(F)F)cc3CC(F)(F)F)c3cncn23)C1 [Compound 343, [(1s,3s)-1-methyl-3-({1-[2-(2,2,2-trifluoroethyl)-4-(trifluoromethyl)phenyl]imidazo[1,5-d][1,2,4]triazin-4-yl}amino)cyclobutyl]methanol] |
| 1 to 10 | CN1CCCC(Nc2nnc(-c3ccc(C(F)(F)F)cc3C(F)(F)F)c3cncn23)C1=O (stereo not shown) [Compound 272, 3-({1-[2,4-bis(trifluoromethyl)phenyl]imidazo[1,5-d][1,2,4]triazin-4-yl}amino)-1-methylpiperidin-2-one] |
| ≥ 300 | COc1ccc(-c2nnc(NC(C)c3ccccc3)n3cncc23)c(OC(F)(F)F)c1 (stereo not shown) [Compound 231, 1-[4-methoxy-2-(trifluoromethoxy)phenyl]-N-(1-phenylethyl)imidazo[1,5-d][1,2,4]triazin-4-amine] |
| 1 to 10 | O[C@@H]1COCC[C@H]1Nc1nnc(-c2ccc(C(F)(F)F)cc2C(F)(F)F)c2cncn12 [Compound 273, (3S,4R)-4-({1-[2,4-bis(trifluoromethyl)phenyl]imidazo[1,5-d][1,2,4]triazin-4-yl}amino)oxan-3-ol] |
| 1 to 10 | O[C@@H]1CCCC[C@H]1Nc1nnc(-c2ccc(C(F)(F)F)cc2OC(F)(F)F)c2ccnn12 [Compound 398, (1R,2R)-2-({4-[2-(trifluoromethoxy)-4-(trifluoromethyl)phenyl]pyrazolo[1,5-d][1,2,4]triazin-7-yl}amino)cyclohexan-1-ol] |
| 1 to 10 | COc1ccc(-c2nnc(N[C@@H]3CCCN(C)C3)n3ccc(F)c23)c(OC(F)(F)F)c1 [Compound 39, 8-fluoro-1-[4-methoxy-2-(trifluoromethoxy)phenyl]-N-[(3R)-1-methylpiperidin-3-yl]pyrrolo[1,2-d][1,2,4]triazin-4-amine] |
| 1 to 10 | CC(Nc1nnc(-c2ccc(C(F)(F)F)cc2OC(F)(F)F)c2cccn12)c1cccc(O)c1 (stereo not shown) [Compound 142, 3-[1-({1-[2-(trifluoromethoxy)-4-(trifluoromethyl)phenyl]pyrrolo[1,2-d][1,2,4]triazin-4-yl}amino)ethyl]phenol] |
| 10 to 100 | COc1ccc(-c2nnc(N[C@H]3C[C@@](C)(O)C3)n3cccc23)c(Cl)c1 [Compound 72, (1s,3s)-3-{[1-(2-chloro-4-methoxyphenyl)pyrrolo[1,2-d][1,2,4]triazin-4-yl]amino}-1-methylcyclobutan-1-ol] |

| IC50 [nM] | SMILES |
| --- | --- |
| 10 to 100 | COc1ccc(-c2nnc(N[C@H]3C[C@@](C)(CO)C3)n3cncc23)c(OC(F)(F)F)c1 [Compound 342, [(1s,3s)-3-({1-[4-methoxy-2-(trifluoromethoxy)phenyl]imidazo[1,5-d][1,2,4]triazin-4-yl}amino)-1-methylcyclobutyl]methanol] |
| 1 to 10 | COc1ccc(-c2nnc(N[C@@H]3C[C@@H](F)CN(C)C3)n3cncc23)c(OC(F)F)c1 [Compound 224, 1-[2-(difluoromethoxy)-4-methoxyphenyl]-N-[(3R,5R)-5-fluoro-1-methylpiperidin-3-yl]imidazo[1,5-d][1,2,4]triazin-4-amine] |
| 100 to 300 | COc1ccc(-c2nnc(N[C@H]3C[C@@](C)(O)C3)n3cncc23)c(C(F)(F)C(F)(F)F)c1 [Compound 315, (1s,3s)-3-({1-[4-methoxy-2-(pentafluoroethyl)phenyl]imidazo[1,5-d][1,2,4]triazin-4-yl}amino)-1-methylcyclobutan-1-ol] |
| 10 to 100 | COc1ccc(-c2nnc(Nc3cc[nH]n3)n3cncc23)c(OC(F)F)c1 [Compound 227, 1-[2-(difluoromethoxy)-4-methoxyphenyl]-N-(1H-pyrazol-3-yl)imidazo[1,5-d][1,2,4]triazin-4-amine] |
| < 1 | CCN1CCC[C@@H](Nc2nnc(-c3ccc(OC)cc3OC(F)(F)F)c3cccn23)C1 [Compound 59] |
| 1 to 10 | CCN1CCC[C@@H](Nc2nnc(-c3ccc(C(F)(F)F)cc3F)c3cccn23)C1 [Compound 20, N-[(3R)-1-ethylpiperidin-3-yl]-1-[2-fluoro-4-(trifluoromethyl)phenyl]pyrrolo[1,2-d][1,2,4]triazin-4-amine] |
| < 1 | Cc1ccc(-c2nnc(N[C@@H]3CCCN(C)C3)n3cccc23)c(CC(F)(F)F)c1 [Compound 159, N-[(3R)-1-methylpiperidin-3-yl]-1-[4-methyl-2-(2,2,2-trifluoroethyl)phenyl]pyrrolo[1,2-d][1,2,4]triazin-4-amine] |
| 10 to 100 | O[C@@H]1CCCC[C@@H]1Nc1nnc(-c2ccc(C(F)(F)F)cc2OC(F)F)c2cccn12 [Compound 79, (1R,2S)-2-({1-[2-(difluoromethoxy)-4-(trifluoromethyl)phenyl]pyrrolo[1,2-d][1,2,4]triazin-4-yl}amino)cyclohexan-1-ol] |
| 10 to 100 | O[C@@H]1COCC[C@H]1Nc1nnc(-c2ccc(C(F)(F)F)cc2OC(F)(F)F)c2cncn12 [Compound 322, (3S,4R)-4-({1-[2-(trifluoromethoxy)-4-(trifluoromethyl)phenyl]imidazo[1,5-d][1,2,4]triazin-4-yl}amino)oxan-3-ol] |
| 10 to 100 | COc1ccc(-c2nnc(N[C@H]3C[C@@](C)(O)C3)n3cncc23)c(OC(F)F)c1 [Compound 226, (1s,3s)-3-({1-[2-(difluoromethoxy)-4-methoxyphenyl]imidazo[1,5-d][1,2,4]triazin-4-yl}amino)-1-methylcyclobutan-1-ol] |
| 1 to 10 | COc1ccc(-c2nnc(N[C@@H]3CCCN(CCO)C3)n3ccc(F)c23)c(C(F)(F)F)c1 [Compound 18, 2-[(3R)-3-({8-fluoro-1-[4-methoxy-2-(trifluoromethyl)phenyl]pyrrolo[1,2-d][1,2,4]triazin-4-yl}amino)piperidin-1-yl]ethan-1-ol] |
| < 1 | CCN1CCC[C@@H](Nc2nnc(-c3ccc(OC)cc3OC(F)F)c3cccn23)C1 [Compound 166, 1-[2-(difluoromethoxy)-4-methoxyphenyl]-N-[(3R)-1-ethylpiperidin-3-yl]pyrrolo[1,2-d][1,2,4]triazin-4-amine] |
| 1 to 10 | O[C@H]1CCC[C@@H](Nc2nnc(-c3ccc(OC(F)F)cc3OC(F)(F)F)c3cncn23)C1 [Compound 245, (1S,3R)-3-({1-[4-(difluoromethoxy)-2-(trifluoromethoxy)phenyl]imidazo[1,5-d][1,2,4]triazin-4-yl}amino)cyclohexan-1-ol] |
| 10 to 100 | COc1ccc(-c2nnc(N[C@@H]3CCOC[C@H]3O)n3cccc23)c(OC(F)F)c1 [Compound 167, (3S,4R)-4-({1-[2-(difluoromethoxy)-4-methoxyphenyl]pyrrolo[1,2-d][1,2,4]triazin-4-yl}amino)oxan-3-ol] |
| < 1 | CC(Nc1nnc(-c2ccc(C(F)(F)F)cc2CC(F)(F)F)c2cncn12)c1cccc(O)c1 (stereo not shown) [Compound 266] |
| 10 to 100 | FC(F)Oc1cc(Cl)ccc1-c1nnc(N[C@@H]2CCCOC2)n2cncc12 [Compound 189, 1-[4-chloro-2-(difluoromethoxy)phenyl]-N-[(3R)-oxan-3-yl]imidazo[1,5-d][1,2,4]triazin-4-amine] |
| < 1 | CCN1CCC[C@@H](Nc2nnc(-c3ccc(Br)cc3OC(F)(F)F)c3cc(C)nn23)C1 [Compound 357, 4-[4-bromo-2-(trifluoromethoxy)phenyl]-N-[(3R)-1-ethylpiperidin-3-yl]-2-methylpyrazolo[1,5-d][1,2,4]triazin-7-amine] |
